Test results: the NIST ThermoML archive (doi:10.1016/j.jct.2015.09.004)

Columns and labels:
[1] = Molar enthalpy of transition or fusion; details: Crystal; DSC
[2] = for vapor or sublimation pressure: Closed cell (Static) method; for Normal melting temperature: DTA

CC(=O)c1ccc(I)cc1 [para-iodoacetophenone]
Details | Molar enthalpy of transition or fusion [kcal/mol]
[1] | 5.62

[2]
Details | vapor or sublimation pressure [kPa]
313.07 K, Crystal | 0.00086
315.1 K, Crystal | 0.00108
317.07 K, Crystal | 0.00134
319.04 K, Crystal | 0.00166
321.02 K, Crystal | 0.00205
323.02 K, Crystal | 0.00253
325.06 K, Crystal | 0.00313
326.98 K, Crystal | 0.00382
329.06 K, Crystal | 0.00477
330.99 K, Crystal | 0.00578
333.01 K, Crystal | 0.0071
334.95 K, Crystal | 0.00856
336.96 K, Crystal | 0.01043
338.87 K, Crystal | 0.01256
340.91 K, Crystal | 0.01528
342.83 K, Crystal | 0.01834
344.76 K, Crystal | 0.02192
346.73 K, Crystal | 0.02634
348.73 K, Crystal | 0.03176
348.73 K, Metastable liquid | 0.03831
350.7 K, Metastable liquid | 0.04337
350.71 K, Crystal | 0.03795
352.69 K, Metastable liquid | 0.04939
352.75 K, Crystal | 0.04537
354.68 K, Metastable liquid | 0.05596
356.62 K, Metastable liquid | 0.06332
358.92 K, Liquid | 0.07293
360.65 K, Liquid | 0.08166
362.51 K, Liquid | 0.09128
364.59 K, Liquid | 0.1048
366.58 K, Liquid | 0.1171
368.51 K, Liquid | 0.131
370.52 K, Liquid | 0.1458
372.41 K, Liquid | 0.1634
374.48 K, Liquid | 0.1829
376.36 K, Liquid | 0.2045
378.41 K, Liquid | 0.2281
380.39 K, Liquid | 0.2553
382.37 K, Liquid | 0.2831
384.3 K, Liquid | 0.3146
386.31 K, Liquid | 0.3478
388.27 K, Liquid | 0.3882
389.83 K, Liquid | 0.42
392.22 K, Liquid | 0.4723
394.17 K, Liquid | 0.5188
396.15 K, Liquid | 0.5726
398.12 K, Liquid | 0.6279
399.98 K, Liquid | 0.6883
402.04 K, Liquid | 0.7599

Details | Normal melting temperature [°C]
[2], Crystal | 84.5

CC(=O)c1ccc(Br)cc1 [4'-bromoacetophenone]
Details | Molar enthalpy of transition or fusion [kcal/mol]
[1] | 4.57

[2]
Details | vapor or sublimation pressure [kPa]
295.3 K, Crystal | 0.00115
297.26 K, Crystal | 0.00142
299.2 K, Crystal | 0.00175
301.22 K, Crystal | 0.00219
303.17 K, Crystal | 0.00269
305.12 K, Crystal | 0.00341
305.14 K, Metastable liquid | 0.00501
307.11 K, Crystal | 0.00418
307.13 K, Metastable liquid | 0.00591
309.13 K, Crystal | 0.00512
309.14 K, Metastable liquid | 0.00699
311.05 K, Crystal | 0.00632
311.08 K, Metastable liquid | 0.0082
312.97 K, Metastable liquid | 0.00953
313.08 K, Crystal | 0.00777
315.05 K, Crystal | 0.00949
315.06 K, Metastable liquid | 0.01125
317.04 K, Crystal | 0.01155
317.08 K, Metastable liquid | 0.01318
319.04 K, Crystal | 0.0141
319.06 K, Metastable liquid | 0.01542
321.03 K, Metastable liquid | 0.01778
322.97 K, Metastable liquid | 0.02065
324.98 K, Metastable liquid | 0.02389
327.07 K, Liquid | 0.02782
328.92 K, Liquid | 0.03179
331.01 K, Liquid | 0.03679
333 K, Liquid | 0.04238
334.94 K, Liquid | 0.04849
336.95 K, Liquid | 0.05561
338.92 K, Liquid | 0.06344
340.91 K, Liquid | 0.07228
342.92 K, Liquid | 0.08249
344.85 K, Liquid | 0.09385
346.83 K, Liquid | 0.1056
348.79 K, Liquid | 0.1197
350.66 K, Liquid | 0.1346
352.73 K, Liquid | 0.1529
354.58 K, Liquid | 0.1698
356.66 K, Liquid | 0.1927
358.51 K, Liquid | 0.2158
360.62 K, Liquid | 0.2427
362.46 K, Liquid | 0.27
364.54 K, Liquid | 0.3031
366.57 K, Liquid | 0.3388
368.54 K, Liquid | 0.3774
370.53 K, Liquid | 0.4201
372.5 K, Liquid | 0.4659
374.46 K, Liquid | 0.5142
376.43 K, Liquid | 0.5712
378.39 K, Liquid | 0.6312

Details | Normal melting temperature [°C]
[2], Crystal | 51.1

CC(=O)c1ccc(F)cc1 [1-(4-fluorophenyl)ethanone]
Details | Molar enthalpy of transition or fusion [kcal/mol]
[1] | 3.39

[2]
Details | vapor or sublimation pressure [kPa]
255.13 K, Metastable liquid | 0.00086
256.87 K, Metastable liquid | 0.00104
258.79 K, Metastable liquid | 0.00128
260.76 K, Metastable liquid | 0.00157
262.72 K, Metastable liquid | 0.00193
264.7 K, Metastable liquid | 0.00233
266.63 K, Metastable liquid | 0.00285
268.62 K, Metastable liquid | 0.00348
270.62 K, Liquid | 0.00417
272.54 K, Liquid | 0.00501
274.51 K, Liquid | 0.00603
276.49 K, Liquid | 0.00725
278.49 K, Liquid | 0.00865
280.5 K, Liquid | 0.01035
282.42 K, Liquid | 0.01227
284.44 K, Liquid | 0.01455
286.42 K, Liquid | 0.01723
288.39 K, Liquid | 0.02022
290.38 K, Liquid | 0.02379
292.34 K, Liquid | 0.02795
294.31 K, Liquid | 0.03279
296.34 K, Liquid | 0.03807
298.27 K, Liquid | 0.04465
300.3 K, Liquid | 0.05171
302.24 K, Liquid | 0.06005
304.2 K, Liquid | 0.06895
306.15 K, Liquid | 0.07985
308.16 K, Liquid | 0.09146
310.15 K, Liquid | 0.1056

Details | Normal melting temperature [°C]
[2], Crystal | -4

CC(=O)c1ccc(Cl)cc1 [4'-chloroacetophenone]
Details | Molar enthalpy of transition or fusion [kcal/mol]
[1] | 3.66

[2]
Details | vapor or sublimation pressure [kPa]
271.56 K, Metastable liquid | 0.00065
273.59 K, Metastable liquid | 0.00081
275.52 K, Metastable liquid | 0.00098
277.47 K, Metastable liquid | 0.00118
279.48 K, Metastable liquid | 0.00144
281.51 K, Metastable liquid | 0.00176
283.42 K, Metastable liquid | 0.0021
285.45 K, Metastable liquid | 0.00256
287.39 K, Metastable liquid | 0.00305
289.34 K, Metastable liquid | 0.00364
291.32 K, Liquid | 0.00437
293.32 K, Liquid | 0.00519
295.29 K, Liquid | 0.00616
297.26 K, Liquid | 0.00729
299.24 K, Liquid | 0.00863
301.19 K, Liquid | 0.01012
303.21 K, Liquid | 0.01198
305.16 K, Liquid | 0.01396
307.18 K, Liquid | 0.01629
309.12 K, Liquid | 0.01902
311.1 K, Liquid | 0.02236
313.1 K, Liquid | 0.02596
315.07 K, Liquid | 0.03015
317.04 K, Liquid | 0.03486
319.07 K, Liquid | 0.04049
321 K, Liquid | 0.04613
323.09 K, Liquid | 0.05334
325.1 K, Liquid | 0.0612
327.08 K, Liquid | 0.06999
329.05 K, Liquid | 0.07991
331.04 K, Liquid | 0.09133
333 K, Liquid | 0.1037
334.98 K, Liquid | 0.1174

Details | Normal melting temperature [°C]
[2], Crystal | 17.2
